Source: patent publication US9309242B2, “Substituted pyrido[2,3-b]pyrazines as FGFR kinase inhibitors” (priority 2011, dated 2016)

Experiments:
KDR (h) = KDR (h) (Homo sapiens, UniProt P35968); assay: KDR (VEGFR2) (enzymatic assay), TR-FRET; format: biochemical; details: read-out: VEGFR 2 (KDR) pIC50 (converted)
Procedure, shortened: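 Low-ATP (3 μM) TR-FRET kinase assay using 500 nM Btn-Flt3 peptide and 150 ng/ml enzyme, run 2 h at room temperature with 6 mM MnCl2 and 0.1 mM Na3VO4. Signal from Eu-anti-P-Tyr/SA-XL-665 is recorded in RFU.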

FGFR4 (h) = FGFR4 (h) (Homo sapiens, UniProt P22455); assay: FGFR4 (enzymatic assay), TR-FRET; format: biochemical; details: FGFR 4 pIC50, enzymatic assay
[1] = tested on: Ba/F3-FGFR3-transfected cells; assay: Ba/F3-FGFR3 (plus IL3) cellular proliferation assay, counterscreen with 10 ng/ml murine IL3; format: cell-based; details: plus IL3 (10 ng/ml murine IL3, counterscreen); read-out: BAF3-FGFR3 (PLUS IL3) pIC50 (converted)
Procedure, shortened: (§1)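 With or without 10 ng/ml murine IL3, FGFR3-dependent Ba/F3 cells were treated 24 h with compound, then viability was gauged by Alamar Blue fluorescence after 4 h (ex 540/em 590 nm).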

[2] = biological target: T1, Ba/F3-FGFR3-transfected cells (Homo sapiens, UniProt P22607); assay: Ba/F3-FGFR3 (minus IL3) cellular proliferation assay, Alamar Blue; format: cell-based
T1 construct: BAF3-FGFR3 (MIN IL3) pIC50; other: minus IL3
Procedure, shortened: as §1

[3] = biological target: T2, Ba/F3-KDR-transfected cells (Homo sapiens, UniProt P35968); assay: Ba/F3-KDR (minus IL3) cellular proliferation assay, Alamar Blue; format: cell-based
T2 construct: BAF3-KDR (MIN IL3) pIC50; other: minus IL3
Procedure, shortened: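 Cells grown with test compound at 37° C and 5% CO2 for 24 hours were given a resazurin/ferricyanide/ferrocyanide reagent for 4 hours before fluorescence (540/590 nm) was recorded.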

[4] = biological target: T3, Ba/F3-FGFR1-transfected cells (Homo sapiens, UniProt P11362); assay: Ba/F3-FGFR1 (minus IL3) cellular proliferation assay, Alamar Blue; format: cell-based
T3 construct: BAF3-FGFR1 (MIN IL3) pIC50; other: minus IL3
Procedure, shortened: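 Viability of transfected Ba/F3-FGFR1 cells (20000 per well, RPMI-1640 with 10% FBS and 2 mM L-glutamine) was scored by resazurin-based Alamar Blue reduction over 4 h, after 24 h treatment with compound at 37 °C under 5% CO2.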

[5] = tested on: Ba/F3-FGFR1-transfected cells; assay: Ba/F3-FGFR1 (plus IL3) cellular proliferation assay, counterscreen with 10 ng/ml murine IL3; format: cell-based; details: plus IL3 (10 ng/ml murine IL3, counterscreen); read-out: BAF3-FGFR1 (PLUS IL3) pIC50 (converted)
Procedure, shortened: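 Proliferation read-out: resazurin-based Alamar Blue fluorescence (540/590 nm) after 4 h, following 24 h compound treatment of 20000 Ba/F3-FGFR1 cells per well in 10% FBS RPMI at 37° C. IL3 counterscreen used the same protocol plus 10 ng/ml murine IL3.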

[6] = biological target: Ba/F3-FGFR4-transfected cells (Homo sapiens, UniProt P22455); assay: Ba/F3-FGFR4 cellular proliferation assay, Alamar Blue; format: cell-based
Procedure, shortened: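 Here, cells seeded at 20000 per well were treated 24 hours with compound, then given a 4-hour Alamar Blue incubation at 37° C before RFU measurement at ex. 540 nm and em. 590 nm.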

FGFR1 (h) = FGFR1 (h) (Homo sapiens, UniProt P11362); assay: FGFR1 (enzymatic assay), TR-FRET; format: biochemical; details: read-out: FGFR 1 pIC50 (converted)

T1 sequence (P22607 whole entry, change not shown): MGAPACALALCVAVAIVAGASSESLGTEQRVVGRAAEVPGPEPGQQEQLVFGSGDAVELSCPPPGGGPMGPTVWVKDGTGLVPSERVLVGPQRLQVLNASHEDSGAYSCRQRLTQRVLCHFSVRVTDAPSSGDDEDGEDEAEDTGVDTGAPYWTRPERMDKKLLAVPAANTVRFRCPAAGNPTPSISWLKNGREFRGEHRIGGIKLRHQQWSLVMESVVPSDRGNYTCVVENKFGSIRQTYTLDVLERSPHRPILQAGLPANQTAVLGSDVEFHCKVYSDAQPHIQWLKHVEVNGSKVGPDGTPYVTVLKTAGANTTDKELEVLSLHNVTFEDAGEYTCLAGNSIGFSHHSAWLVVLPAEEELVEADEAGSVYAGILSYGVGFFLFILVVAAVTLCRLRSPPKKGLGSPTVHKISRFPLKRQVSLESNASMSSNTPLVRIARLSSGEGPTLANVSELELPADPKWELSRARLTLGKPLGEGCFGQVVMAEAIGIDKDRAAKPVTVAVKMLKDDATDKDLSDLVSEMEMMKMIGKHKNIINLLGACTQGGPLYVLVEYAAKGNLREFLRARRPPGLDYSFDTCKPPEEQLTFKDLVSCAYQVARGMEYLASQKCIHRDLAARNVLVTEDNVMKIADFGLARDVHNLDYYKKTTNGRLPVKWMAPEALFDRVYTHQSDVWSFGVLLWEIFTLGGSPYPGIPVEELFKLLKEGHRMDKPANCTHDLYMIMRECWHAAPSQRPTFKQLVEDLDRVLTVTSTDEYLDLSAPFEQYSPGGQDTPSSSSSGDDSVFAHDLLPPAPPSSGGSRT
Chain of KDR (h) (P35968 20-1356): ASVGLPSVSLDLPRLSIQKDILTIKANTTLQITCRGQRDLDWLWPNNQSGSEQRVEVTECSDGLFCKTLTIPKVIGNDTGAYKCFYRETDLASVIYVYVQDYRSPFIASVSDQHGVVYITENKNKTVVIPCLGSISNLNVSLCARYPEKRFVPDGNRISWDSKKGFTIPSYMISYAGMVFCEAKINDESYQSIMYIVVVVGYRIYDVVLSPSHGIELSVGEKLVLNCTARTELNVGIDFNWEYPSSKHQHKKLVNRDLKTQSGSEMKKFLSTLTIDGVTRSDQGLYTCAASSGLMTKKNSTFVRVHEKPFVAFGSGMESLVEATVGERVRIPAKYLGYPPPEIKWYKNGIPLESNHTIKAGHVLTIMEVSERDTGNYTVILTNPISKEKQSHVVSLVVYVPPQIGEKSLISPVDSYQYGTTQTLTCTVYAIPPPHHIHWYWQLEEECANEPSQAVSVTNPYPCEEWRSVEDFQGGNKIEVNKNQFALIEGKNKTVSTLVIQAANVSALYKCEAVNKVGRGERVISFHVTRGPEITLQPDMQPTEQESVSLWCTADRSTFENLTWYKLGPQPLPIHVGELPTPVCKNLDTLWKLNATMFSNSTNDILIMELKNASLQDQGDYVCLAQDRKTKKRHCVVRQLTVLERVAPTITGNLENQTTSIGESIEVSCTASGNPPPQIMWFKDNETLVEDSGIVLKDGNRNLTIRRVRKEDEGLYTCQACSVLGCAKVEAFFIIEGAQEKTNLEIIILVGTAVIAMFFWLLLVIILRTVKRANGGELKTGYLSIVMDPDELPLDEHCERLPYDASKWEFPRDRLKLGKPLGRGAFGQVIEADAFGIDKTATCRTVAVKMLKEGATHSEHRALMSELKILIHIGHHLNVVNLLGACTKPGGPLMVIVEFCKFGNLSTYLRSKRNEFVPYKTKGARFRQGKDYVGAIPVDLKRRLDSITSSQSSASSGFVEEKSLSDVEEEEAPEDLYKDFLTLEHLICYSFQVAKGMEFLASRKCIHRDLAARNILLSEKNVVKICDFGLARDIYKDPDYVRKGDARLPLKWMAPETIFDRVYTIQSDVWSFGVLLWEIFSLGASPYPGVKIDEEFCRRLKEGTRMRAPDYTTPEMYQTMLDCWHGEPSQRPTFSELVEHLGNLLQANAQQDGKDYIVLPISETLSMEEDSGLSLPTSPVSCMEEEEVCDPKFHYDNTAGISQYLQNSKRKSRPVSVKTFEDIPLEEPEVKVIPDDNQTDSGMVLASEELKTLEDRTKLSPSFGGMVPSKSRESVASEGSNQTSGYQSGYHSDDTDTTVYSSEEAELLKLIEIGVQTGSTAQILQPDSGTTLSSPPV
T2 sequence (P35968 whole entry, change not shown): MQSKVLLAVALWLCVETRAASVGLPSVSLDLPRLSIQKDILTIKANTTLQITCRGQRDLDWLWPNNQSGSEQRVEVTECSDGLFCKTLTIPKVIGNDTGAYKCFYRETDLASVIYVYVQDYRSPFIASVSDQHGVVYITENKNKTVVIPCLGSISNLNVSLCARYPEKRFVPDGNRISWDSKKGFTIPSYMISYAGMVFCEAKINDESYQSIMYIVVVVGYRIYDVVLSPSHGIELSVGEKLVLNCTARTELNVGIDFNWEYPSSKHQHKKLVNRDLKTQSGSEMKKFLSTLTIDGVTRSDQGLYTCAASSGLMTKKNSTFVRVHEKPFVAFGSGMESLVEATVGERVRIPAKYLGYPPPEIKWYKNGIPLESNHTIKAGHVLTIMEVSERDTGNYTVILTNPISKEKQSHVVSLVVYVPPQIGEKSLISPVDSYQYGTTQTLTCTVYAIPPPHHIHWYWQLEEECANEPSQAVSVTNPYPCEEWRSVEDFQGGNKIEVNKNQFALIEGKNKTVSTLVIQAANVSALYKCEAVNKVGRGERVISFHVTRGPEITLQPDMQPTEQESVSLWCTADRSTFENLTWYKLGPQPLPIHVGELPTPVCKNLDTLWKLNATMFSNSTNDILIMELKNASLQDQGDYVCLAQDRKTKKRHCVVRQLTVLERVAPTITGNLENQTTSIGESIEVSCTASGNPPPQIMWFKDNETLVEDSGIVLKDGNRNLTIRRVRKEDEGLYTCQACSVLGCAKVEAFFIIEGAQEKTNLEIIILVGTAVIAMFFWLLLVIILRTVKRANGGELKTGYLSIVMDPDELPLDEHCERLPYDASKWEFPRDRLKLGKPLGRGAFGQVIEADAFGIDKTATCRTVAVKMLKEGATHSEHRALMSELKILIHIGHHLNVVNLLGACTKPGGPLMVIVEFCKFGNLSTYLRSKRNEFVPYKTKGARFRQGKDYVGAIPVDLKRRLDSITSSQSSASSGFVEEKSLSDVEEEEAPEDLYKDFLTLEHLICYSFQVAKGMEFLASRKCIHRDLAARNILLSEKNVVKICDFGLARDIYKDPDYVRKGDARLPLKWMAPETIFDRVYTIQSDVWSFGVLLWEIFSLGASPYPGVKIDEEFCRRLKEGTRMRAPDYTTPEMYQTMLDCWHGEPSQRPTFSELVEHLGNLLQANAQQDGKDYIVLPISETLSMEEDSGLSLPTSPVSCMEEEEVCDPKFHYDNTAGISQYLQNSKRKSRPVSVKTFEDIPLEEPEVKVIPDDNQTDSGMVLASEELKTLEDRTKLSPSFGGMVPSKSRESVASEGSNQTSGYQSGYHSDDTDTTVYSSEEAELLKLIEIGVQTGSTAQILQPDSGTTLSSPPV
Chain of Ba/F3-FGFR4-transfected cells (P22455 whole entry, change not shown): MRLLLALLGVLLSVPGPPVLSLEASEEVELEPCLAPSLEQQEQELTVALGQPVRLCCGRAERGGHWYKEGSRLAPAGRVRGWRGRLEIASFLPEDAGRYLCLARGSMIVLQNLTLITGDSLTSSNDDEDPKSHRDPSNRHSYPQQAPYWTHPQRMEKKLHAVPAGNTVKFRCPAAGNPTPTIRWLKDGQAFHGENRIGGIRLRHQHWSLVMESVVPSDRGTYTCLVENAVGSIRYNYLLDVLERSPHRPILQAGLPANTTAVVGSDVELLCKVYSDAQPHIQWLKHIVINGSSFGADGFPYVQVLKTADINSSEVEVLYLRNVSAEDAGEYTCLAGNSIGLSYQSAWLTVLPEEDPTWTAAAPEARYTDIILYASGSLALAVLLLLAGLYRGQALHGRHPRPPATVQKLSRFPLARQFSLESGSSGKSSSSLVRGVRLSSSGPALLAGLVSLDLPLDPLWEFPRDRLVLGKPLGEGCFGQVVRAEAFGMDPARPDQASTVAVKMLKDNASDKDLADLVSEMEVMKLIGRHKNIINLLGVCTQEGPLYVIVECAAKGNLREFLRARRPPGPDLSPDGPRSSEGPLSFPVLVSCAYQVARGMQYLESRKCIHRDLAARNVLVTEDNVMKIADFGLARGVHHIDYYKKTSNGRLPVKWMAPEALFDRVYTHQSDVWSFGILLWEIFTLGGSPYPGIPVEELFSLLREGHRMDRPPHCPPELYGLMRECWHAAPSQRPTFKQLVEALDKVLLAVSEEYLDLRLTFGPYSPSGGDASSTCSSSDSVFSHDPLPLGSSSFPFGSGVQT
Chain of FGFR4 (h) (P22455 22-802): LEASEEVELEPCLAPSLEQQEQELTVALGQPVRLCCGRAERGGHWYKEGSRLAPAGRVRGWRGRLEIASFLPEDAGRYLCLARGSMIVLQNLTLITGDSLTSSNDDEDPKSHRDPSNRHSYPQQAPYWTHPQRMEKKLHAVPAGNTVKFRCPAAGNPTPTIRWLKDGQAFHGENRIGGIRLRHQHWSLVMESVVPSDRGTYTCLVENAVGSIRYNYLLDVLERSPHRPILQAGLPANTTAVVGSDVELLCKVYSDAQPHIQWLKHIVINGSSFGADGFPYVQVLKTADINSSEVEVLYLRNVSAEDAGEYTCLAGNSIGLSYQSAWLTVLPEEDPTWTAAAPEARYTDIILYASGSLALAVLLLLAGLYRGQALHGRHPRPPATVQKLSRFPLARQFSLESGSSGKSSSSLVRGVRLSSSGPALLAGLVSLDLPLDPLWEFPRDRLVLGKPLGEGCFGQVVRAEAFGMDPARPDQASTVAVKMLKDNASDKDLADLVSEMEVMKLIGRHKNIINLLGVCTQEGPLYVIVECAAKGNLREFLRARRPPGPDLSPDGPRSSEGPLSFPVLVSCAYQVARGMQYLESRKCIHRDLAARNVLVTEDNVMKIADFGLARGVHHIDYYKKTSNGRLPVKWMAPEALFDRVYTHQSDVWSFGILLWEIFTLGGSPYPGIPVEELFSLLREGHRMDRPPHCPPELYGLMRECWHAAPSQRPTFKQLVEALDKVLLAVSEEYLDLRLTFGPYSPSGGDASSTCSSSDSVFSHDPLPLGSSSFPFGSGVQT

SMILES	IC50 (KDR (h)) [nM]	IC50 (FGFR4 (h)) [nM]	IC50 [1] [nM]	BAF3-FGFR3 (MIN IL3) pIC50 [2]	BAF3-KDR (MIN IL3) pIC50 [3]	BAF3-FGFR1 (MIN IL3) pIC50 [4]	IC50 [5] [nM]	BAF3-FGFR4 pIC50 [6]	IC50 (FGFR1 (h)) [nM]
COc1cc(OC)c(F)c(N(CC(C)(C)O)c2ccc3ncc(-c4cnn(CC(C)(C)O)c4)nc3n2)c1 (single isomer, unassigned) [Compound 208]	77.6	18.6	> 10000	~7.15	5.57	6.84	> 10000	6.16	3.63
Cn1cc(-c2cnc3ccc(N(Cc4ncc[nH]4)c4c(F)c(F)cc(F)c4F)nc3n2)cn1 [Compound 175]	219	4.79	> 10000	6.86	<5	6.87	> 10000	6.75	4.07
COc1cc(OC)c(F)c(N(CC2CCC(=O)N2CCO)c2ccc3ncc(-c4cnn(C)c4)nc3n2)c1 (single isomer, unassigned) [Compound 218]	42.7	3.89	> 10000	~7.64	5.64	7.51	> 10000	6.99	3.24
COc1cc(OC)c(F)c(N(Cc2ncc[nH]2)c2ccc3ncc(-c4cccnc4)nc3n2)c1 [Compound 190a]	28.8	2.95	> 10000	7.72	5.82	7.94	> 10000	7.11	1.02
COc1cc(OC)cc(N(Cc2nnc(N)o2)c2ccc3ncc(-c4cnn(C)c4)nc3n2)c1 [Compound 188]	33.9	1.62	> 10000	~7.15	5.63	6.78	> 10000	6.62	1.66
COc1cc(OC)c(F)c(N(CCNC(C)=O)c2ccc3ncc(-c4cnn(C)c4)nc3n2)c1 [Compound 242]	28.2	2.24	> 10000	~8.11	5.49	7.35	> 10000	7.22	1.17
COc1cc(OC)c(F)c(N(Cc2ncco2)c2ccc3ncc(-c4cnn(C)c4)nc3n2)c1 [Compound 177]	10.5	2.45	> 10000	7.10	5.67	7.22	> 10000	6.79	1.78
COc1cc(/N=c2\ccc3ncc(-c4cnn(C)c4)nc3n2CC2COC2)c(F)c(OC)c1 [Compound 143]	5.01	1.02	> 10000	5.42	<5	5.48	> 10000	5.29	1.26
COc1cc(/N=c2\ccc3ncc(-c4cnn(C)c4)nc3n2CC2CCOC2)c(F)c(OC)c1 (single isomer, unassigned) [Compound 169]	4.27	0.977	> 10000	7.44	6.40	7.68	> 10000	7.20	~0.933
COc1cc(OC)c(F)c(N(CCNC2COC2)c2ccc3ncc(-c4cnn(C)c4)nc3n2)c1 [Compound 221]	~29.5	6.61	> 10000	~7.67	6.11	7.53	> 10000	6.98	1.51
